Here are results for three compounds from US20130156701A1, “METHOD OF PREPARING ETHACRYNIC AMIDE DERIVATIVES AND APPLICATION THEREOF” (NATIONAL TSING HUA UNIVERSITY, priority 2011, published 2013).

In series [1] the test system is HEL cells. The series is described as follows: trypan blue exclusion assay, cell viability after FBuEA treatment. The format is cell-based, human. The note with it: 48 hr, read-out: IC50 (concentration required to decrease 50% cell viability). How it is done:
(§1) Human lung cancer cell line A549, human erythroleukemia cell line (HEL) and human embryonic kidney 293T cell line were cultivated in the RPMI-1640 medium (GIBCO) supplemented with 10% fetal bovine serum, 100 U/mL penicillin, 0.1 mg/mL streptomycin and 2 mM L-glutamine (GIBCO) at 37° C. in 5% CO2 incubator. 293T was a non-tumorigenic cell line as a […] control in cell viability experiment.
(§2) To detect the cytotoxicity effects of FBuEA (compound of formula 10), A549 and HEL were treated with different concentration of FBuEA for 48 hr and compared with 293T. For the cytotoxicity study, trypan blue exclusion assay was performed to quantity the cell viability, 5×10^4 cells and the medium with different concentration of FBuEA (from 0 to 20 µM) were loaded in the 48-well plates for 48 hr. After 48 hr, cells mixed with trypan blue (GIBICO), just count the cells that have excluded the dye. Each count repeated three times and calculated the average of concentration. The cytotoxicity effects of EBuEA to A549, HEL and 293T cells were indicated by IC50 value (comparing with untreated cells, the concentration of EBuEA required to decrease 50% cell viability).

In series [2] the test system is A549 cells. The description is as above. The format is cell-based, human. The following applies: 48 hr, read-out: IC50 (concentration required to decrease 50% cell viability). As to the method:
as §1, §2

Series [3] deals with 293T cells. The description is as above. The format is cell-based, human. The following applies: 48 hr, read-out: IC50 (concentration required to decrease 50% cell viability). As to the method:
as §1, §2

Series [4] is described as follows: PET imaging of the liver of the TAA-treated CCA rat. The format is in vivo. The following applies: CCA rat receiving TAA for 18 weeks. How it is done: The rats were anesthetized using 1 L/min 2% isoflurane (100% oxygen). After the rats had been anesthetized, they were given ^18F-FBuEA (11 MBq) via the lateral tail vein. After the injection, the rats were fixed in the prone position on a carbon bed.
Dynamic imaging (0-120 min) single-frame scans were acquired with a small-animal PET camera (microPET R4; Concorde Microsystems Inc.). The region of interest (ROI) was disposed in the tumor region by hand, the image reconstructions of ROI were processed with ASIPro software (Concorde Microsystems INC.). Using microPET, the tumor volumes were determined by the intake of ^18F-FBuEA (% ID/g).
Being a promising imaging probe, [^18F]FBuEA should be capable of detecting a disease at its early stage. […] Then the CCA rat along with the normal rat was subsequently imaged with [^18F]FBuEA 5 days later. […] The same CCA rat after feeding for 23 weeks of TAA was imaged again with [^18F]FBuEA but the imaging time was shortened to 5-10 min for optimization test (FIG. 11(D) and (E)). Whereas the tumor lesion was still dark and the cold spot was similar to that of 18 week rat. From the above comparisons, the optimized imaging sampling times appeared to be 0-30 min.

For series [5] the following is noted: parent ethacrynic acid, comparison value; cited from earlier work.

In the case of `C=C(CC)C(=O)c1ccc(OCC(=O)NCCCCF)c(Cl)c1Cl` [FBuEA, N-(4-fluorobutyl)ethacrynic amide], the IC50 in series [1] was determined as 5 µM; in series [2] it was 14 µM; in series [3] it was 20 µM.
On to `OC[C@H]1OC(O)[C@H]([18F])[C@@H](O)[C@@H]1O` (some centres unmarked) [[^18F]FDG, [^18F]fluorodeoxyglucose, reference compound], for which the “PET signal at the tumor lesion” value in series [4] is “significant hot spot”.
Turning to `C=C(CC)C(=O)c1ccc(OCC(=O)O)c(Cl)c1Cl` [ethacrynic acid], the plasma half-life in series [5] was 30 to 60 min.
